Consider 78 molecules from PubChem BioAssay AID1645861 (Buhrlage Lab, Dana-Farber Cancer Institute and Novartis …, 2021).

Active and inactive are the calls of the source.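 How the source made its calls: active means compounds whose peak USP7 inhibition across the dose series reached 30% or more; inactive means the rest.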

The term IC50 denotes the concentration at which inhibition is half-maximal.

Ubiquitin carboxyl-terminal hydrolase 7 (Homo sapiens), sequence (Q93009 whole entry, looked up): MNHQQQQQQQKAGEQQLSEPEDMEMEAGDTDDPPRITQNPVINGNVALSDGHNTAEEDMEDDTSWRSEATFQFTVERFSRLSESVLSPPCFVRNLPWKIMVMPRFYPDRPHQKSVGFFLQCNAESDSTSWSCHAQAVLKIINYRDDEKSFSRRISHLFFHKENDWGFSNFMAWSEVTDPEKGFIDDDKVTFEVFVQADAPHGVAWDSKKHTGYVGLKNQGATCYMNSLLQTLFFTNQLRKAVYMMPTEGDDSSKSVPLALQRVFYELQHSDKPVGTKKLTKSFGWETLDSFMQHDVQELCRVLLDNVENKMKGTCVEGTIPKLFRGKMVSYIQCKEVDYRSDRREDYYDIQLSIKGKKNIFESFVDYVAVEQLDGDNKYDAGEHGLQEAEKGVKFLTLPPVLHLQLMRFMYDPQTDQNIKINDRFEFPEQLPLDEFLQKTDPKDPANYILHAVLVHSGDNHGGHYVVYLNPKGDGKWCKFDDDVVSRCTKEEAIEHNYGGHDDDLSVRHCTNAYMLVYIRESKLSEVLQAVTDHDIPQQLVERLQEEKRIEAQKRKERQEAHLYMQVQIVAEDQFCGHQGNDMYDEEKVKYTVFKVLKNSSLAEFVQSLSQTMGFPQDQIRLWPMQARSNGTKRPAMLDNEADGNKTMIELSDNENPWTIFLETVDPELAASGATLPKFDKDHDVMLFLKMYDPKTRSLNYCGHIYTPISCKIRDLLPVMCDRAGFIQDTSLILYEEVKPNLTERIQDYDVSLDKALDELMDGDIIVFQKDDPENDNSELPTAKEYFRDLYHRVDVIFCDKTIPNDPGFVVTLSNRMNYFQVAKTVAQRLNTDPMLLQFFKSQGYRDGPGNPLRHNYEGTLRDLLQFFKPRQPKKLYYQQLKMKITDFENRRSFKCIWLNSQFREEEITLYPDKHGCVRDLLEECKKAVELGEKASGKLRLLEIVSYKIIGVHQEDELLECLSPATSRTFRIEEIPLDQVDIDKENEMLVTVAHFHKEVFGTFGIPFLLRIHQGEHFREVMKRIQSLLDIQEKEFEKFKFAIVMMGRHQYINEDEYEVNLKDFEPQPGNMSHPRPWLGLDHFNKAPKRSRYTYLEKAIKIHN

The assay concerns the target Ubiquitin carboxyl-terminal hydrolase 7 (Homo sapiens) (UniProt Q93009). Description: Ubiquitin-specific protease 7 DUB inhibitors, concentration-effect, biochemical, validation of primary hits (AID 1645861). The settings on record: purified USP7, Ub-rhodamine cleavage fluorescence, 60 min.
In the case of `O=C(Cn1c(=O)n(-c2ccc(CC(=O)NC3CCCC3)cc2)c(=O)c2ccccc21)Nc1ccccc1[N+](=O)[O-]`, the IC50 was > 50 µM (inactive).
`Nc1c(-c2nc(-c3ccccc3Cl)no2)nnn1-c1ccc(Cl)cc1`: the IC50 is > 50 µM (inactive).
The figure for `CC(=O)NS(=O)(=O)c1ccc(NC(=O)/C=C/c2cn(-c3ccccc3)nc2-c2ccccc2)cc1` is 36.4 µM.
Turning to `Cc1cccc(OCCn2c(CCNC(=O)C3CCCCC3)nc3ccccc32)c1`, the IC50 is > 50 µM (inactive).
The value for `Cc1ccc(NC(=O)c2ccc3nn(CC(=O)Nc4ccc(F)cc4F)c(=O)n3c2)cc1` was > 50 µM (inactive); that for `O=C(CSc1ccc(-c2cccc([N+](=O)[O-])c2)nn1)Nc1cccc(F)c1` was > 50 µM (inactive).
In the case of `COc1ccc(Nc2nc3c(S(=O)(=O)c4ccc(C)cc4)nnn3c3ccsc23)c(OC)c1`, the IC50 is > 50 µM (inactive).
The figure for `CCOc1ccc2c(c1)c(=O)c(C(=O)c1ccc(C)cc1)cn2CC(=O)Nc1ccc(C)cc1` is > 50 µM (inactive).
With `CCc1noc(-c2ccn3c(CC(=O)Nc4ccccc4C)nnc3c2)n1`, the IC50 is > 50 µM (inactive).
The figure for `COc1cccc(NC(=O)C(Sc2cccc(NC(=O)c3ccccc3F)c2)c2ccccc2)c1` (stereo not drawn) is > 50 µM (inactive).
The figure for `CCn1cc2c(n1)c(=O)n(Cc1ccccc1)c(=O)n2CC(=O)Nc1ccc(OC)cc1` is > 50 µM (inactive).
The value for `CN1C(=O)COc2cc(-c3noc(C(=O)NCc4ccc(F)cc4)n3)ccc21` was > 50 µM (inactive); that for `Cc1cccc2nc(CSc3nc4ccc([N+](=O)[O-])cc4[nH]3)cn12` was > 50 µM (inactive).
On to `COc1ccc(NC(=O)Cn2cc(C(=O)c3ccc(C)cc3)c(=O)c3ccccc32)cc1`, for which the IC50 is > 50 µM (inactive).
The figure for `Cc1ccc(C(=O)NC(C)c2ccccc2)cc1NC(=O)c1nsc2ccccc12` (stereo not drawn) is > 50 µM (inactive); for `COc1cc(C)cc2c1C(=O)c1c(cc(O)c(Cl)c1O)C2=O` it is 12.9 µM.
For `Cc1cc(O)c2c3c(c(O)cc2c1)C(=O)c1c(O)cccc1C3=O`, the IC50 is 19.5 µM.
The figure for `COc1cccc(C(=O)Nc2ccc(SC(C)C(=O)Nc3ccc(C(N)=O)cc3)cc2)c1` (stereo not drawn) is > 50 µM (inactive); for `O=C(Nc1ccc(-c2cn3ccsc3n2)cc1)c1ccc(Cl)c([N+](=O)[O-])c1` it is 39.5 µM; for `CCCCCC(=O)C(CCCC)c1oc(=O)c(CCCC)c(O)c1CCCC` (stereo not drawn) it is > 50 µM (inactive).
The figure for `O=C1CC(O)C(C2=CC(=O)c3c(O)cccc3C2=O)O1` (stereo not drawn) is 32.9 µM; for `Cc1cccc(-n2ccnc(SCC(=O)Nc3ccc(Cl)cc3F)c2=O)c1` it is > 50 µM (inactive); for `O=C(NCc1ccco1)c1ccc(Cn2c(=O)c3sccc3n(Cc3cc(=O)n4ccccc4n3)c2=O)cc1` it is > 50 µM (inactive).
The figure for `Cc1ccc(NC(=O)Cn2c(=O)n(CC(=O)NCCc3ccccc3)c(=O)c3sccc32)cc1C` is > 50 µM (inactive); for `O=C(Cn1c(=O)c2ccccc2c2ccccc21)Nc1ccc2c(c1)OCO2` it is > 50 µM (inactive).
For the molecule `COc1ccc(Cl)cc1NC(=O)c1nc(-c2cn(-c3ccccc3)nn2)no1`, the IC50 is > 50 µM (inactive).
The value for `O=C1CC(c2nc3ccccc3n2CCOc2ccc(Cl)cc2)CN1c1ccccc1` (stereo not drawn) was > 50 µM (inactive); that for `Cc1ccc2c(c1)c(=O)c(C(=O)c1ccccc1)cn2CC(=O)Nc1ccccc1` was > 50 µM (inactive).
The figure for `CCCCCCCc1cc(OC(=O)c2c(CCCCCCC)cc(O)cc2O[C@@H]2O[C@H](CO)[C@H](O)[C@H](O)[C@H]2O)cc(O)c1C(=O)O` is 21.4 µM; for `COc1ccc(C(=O)COC(=O)c2ccccc2NS(=O)(=O)c2ccc(O)c([N+](=O)[O-])c2)cc1` it is 49.3 µM.
The value for `O=C(NCCc1nc2ccccc2n1CCOc1ccccc1Cl)C1CCCCC1` was > 50 µM (inactive); that for `CO/C=C/C(=O)c1cc2cnc3c(=N)cc(NC(C)=O)c([nH]1)c23` was 9.52 µM.
As to `COc1ccc2cc(C(=O)N3CCC(C(C)C(=O)NCc4cccc(F)c4)CC3)[nH]c2c1` (stereo not drawn), the IC50 was > 50 µM (inactive).
`O=C(Nc1ccccc1F)c1nc(-c2cn(-c3ccc(F)cc3)nn2)no1`: the IC50 was > 50 µM (inactive).
The figure for `Cc1ccc(NC(=O)Cn2c(=O)n(CC(=O)NCc3ccco3)c(=O)c3ccccc32)cc1C` is > 50 µM (inactive); for `O=C(NCC1(c2ccccc2)CCC1)c1nc2n(n1)-c1ccccc1S(=O)(=O)N2` it is > 50 µM (inactive).
`CSc1ccc(CNC(=O)Cn2nc(C)c3c(C)n(-c4ccccc4)nc3c2=O)cc1`: the concentration for half-maximal inhibition (IC50) is 45.6 µM.
The value for `O=c1ccc(-c2cc3ccccc3o2)cn1Cc1ccccc1-c1ccccc1` was 31.4 µM; that for `CSCCC(NC(=O)c1ccccc1)c1nc2ccccc2n1CC(=O)Nc1ccccc1` (stereo not drawn) was > 50 µM (inactive).
For `O=C(NCCc1nc2ccccc2n1Cc1ccccc1F)c1ccc(Cl)cc1`, the IC50 was > 50 µM (inactive).
The value for `O=C(CC1C(=O)Nc2nc3ccccc3n21)Nc1cccc2ccccc12` (stereo not drawn) was > 50 µM (inactive); that for `COc1ccc(-c2nc(SCC(=O)Oc3c(C)cccc3C)n3[nH]c(=O)cc3n2)cc1` was > 50 µM (inactive).
The value for `Oc1cccc2nc3c(O)cccc3nc12` was > 50 µM (inactive).
The figure for `Cc1sc(NC(=O)Cn2nnc3ccccc32)nc1-c1ccc2c(c1)CCN2C(=O)c1ccccc1F` is > 50 µM (inactive).
For `Cc1ccc(-n2cc(C(=O)NCCCc3ccccc3)nn2)cc1`, the IC50 is > 50 µM (inactive).
The value for `COc1ccc(NS(=O)(=O)c2cc(NC(=O)CC(=O)c3ccc([N+](=O)[O-])cc3)ccc2Cl)cc1` was > 50 µM (inactive); that for `Cc1cccc(C(=O)Nc2cccc(SC(C(=O)Nc3ccc(Cl)c(C(=O)O)c3)c3ccccc3)c2)c1` (stereo not drawn) was 34.1 µM.
The value for `Cc1ccc2c(c1)N(C)C(=O)c1cc(NC(=O)c3ccc(F)cc3)ccc1O2` was > 50 µM (inactive); that for `CC(C)Cc1ccc(-c2cc(-c3ccc(C(F)(F)F)cc3)c(C#N)c(=O)[nH]2)cc1` was > 50 µM (inactive); that for `COc1cc(O)c2c(O)c3c(cc2c1)C[C@@]1(O)CC(=O)C(C(N)=O)=C(O)[C@@]1(O)C3=O` was 16.8 µM.
For `O=C(CCn1c(=O)c2ccccc2n(CC(=O)OCc2ccccc2)c1=O)NCc1ccc2c(c1)OCO2`, the IC50 was > 50 µM (inactive).
The value for `O=C(Nc1cccc([N+](=O)[O-])c1)Nc1ccc2snnc2c1` was 17.7 µM.
The value for `O=C1CC(c2ccco2)Cc2[nH]c(=O)c(-c3nc(-c4ccc(Cl)cc4)cs3)cc21` (stereo not drawn) was 28.8 µM.
The value for `O=C(CSc1ncnc2c1oc1ccccc12)NCCc1ccccc1` was > 50 µM (inactive); that for `Cn1cc(NC(=O)Nc2cccc(C(F)(F)F)c2)c2ccccc2c1=O` was > 50 µM (inactive).
As to `O=C(CCn1c(=O)c2ccccc2n(Cc2ccc(F)cc2Cl)c1=O)NCc1ccco1`, the IC50 is > 50 µM (inactive).
The value for `C[C@H](NC(=O)Cc1ccccc1F)c1nc2cc(-c3ccccc3F)ncn2n1` was > 50 µM (inactive); that for `COc1ccc(NC(=O)c2cc(-c3cccnc3)n[nH]2)cc1Cl` was > 50 µM (inactive).
The value for `O=C(Nc1ccccc1-c1nc2ccccc2[nH]1)c1sc2ccccc2c1Cl` was 35.7 µM; that for `COc1ccc(CCNC(=O)Cn2c(=O)c3sccc3n(Cc3cccc([N+](=O)[O-])c3)c2=O)cc1OC` was > 50 µM (inactive); that for `COc1ccc(CC(=O)Nc2ccccc2-c2nc3ccccc3[nH]2)cc1OC` was > 50 µM (inactive).
The value for `O=c1[nH]c(C2CCN(S(=O)(=O)c3ccc(S(=O)(=O)NC4CCCCC4)cc3)CC2)nc2c1nnn2Cc1c(F)cccc1Cl` was > 50 µM (inactive); that for `COC(=O)c1ccc(Nc2cc(C)nc3cc(C(F)(F)F)ccc23)cc1` was > 50 µM (inactive); that for `COc1cc2c(=O)n(CC3CCCO3)c(=O)n(CC(=O)c3ccc4c(c3)OCO4)c2cc1OC` (stereo not drawn) was > 50 µM (inactive).
Consider `COc1cc(Cl)c(C)cc1NC(=O)Cn1c(=O)n(CC(=O)NCc2ccco2)c(=O)c2ccccc21`, for which the IC50 was > 50 µM (inactive).
The figure for `Cc1ccc(NC(=O)Nc2ccc(C)n(CC(=O)Nc3ccc(C)cc3C)c2=O)cc1` is 40.2 µM; for `CCOC(=O)N1CCN(C(=O)c2ccc(NCc3ccc(F)cc3)c(S(=O)(=O)Nc3cccc(C(F)(F)F)c3)c2)CC1` it is > 50 µM (inactive); for `O=C(NCc1ccc2c(c1)OCO2)c1cn(-c2cccc(Cl)c2)nn1` it is > 50 µM (inactive).
The figure for `COC(=O)c1ccc2c(=O)n(CCCCCC(=O)NCCc3ccc(S(N)(=O)=O)cc3)c(=O)[nH]c2c1` is > 50 µM (inactive); for `CC[C@@H](C(=O)[C@@H](C)[C@@H](O)[C@H](C)CCc1ccc(C)c(O)c1C(=O)O)[C@@H]1O[C@](CC)([C@H]2CC[C@](O)(CC)[C@H](C)O2)C[C@@H]1C` it is 28.6 µM.
The value for `NC(=O)c1ccccc1NC(=O)COc1ccc2c(c1)oc(=O)c1ccccc12` was > 50 µM (inactive); that for `O=C(CCCc1nnc2c(=O)n(-c3cccc(F)c3)ccn12)NCc1ccc(F)cc1` was > 50 µM (inactive); that for `Cc1cc(NS(=O)(=O)c2ccc(NC(=O)c3ccc(N4CCCC4)c([N+](=O)[O-])c3)cc2)no1` was > 50 µM (inactive).
For the molecule `Cc1sc2ccn(C)c(=O)c2c1C(=O)NC1CCCC1`, the IC50 is > 50 µM (inactive).
The figure for `CCC(=O)Nc1nc2cc(NC(=O)Nc3cccc(C)c3)ccc2s1` is > 50 µM (inactive); for `Cc1nn(-c2ccccc2)c2c1N=C1C(Cl)=CC(Cl)=CN1C21C(=O)Nc2ccccc21` (stereo not drawn) it is 17.4 µM.
`CC(C)c1ccc(NC(=O)COC(=O)c2ccc(NS(=O)(=O)c3ccc4c(c3)OCCO4)cc2)cc1`: the IC50 is > 50 µM (inactive).
The value for `COc1ccc(-c2ccc3cc(C(=O)O)ccc3c2)cc1C12CC3CC(CC(C3)C1)C2` was > 50 µM (inactive).
